Assay results reported in US6692939B2, “Nucleotide sequences encoding mammalian calcium activated chloride channel-adhesion molecules” (Cornell Research Foundation, Inc., priority 1997, dated 2004).

B1: wtLu-ECAM-1: wild type Lu-ECAM-1 purified with mAb 6D3 from extracts of bovine aortic endothelial cells (protein)
chain: MVLCLNVILFLTLHLLPGMKSSMVNLINNGYDGIVIAINPSVPEDEKLIENIKEMVTEASTYLFHATKRRVYFRNVSILIPMTWKSKSEYFIPKQESYDQADVIVANPYLKYGDDPYTLQYGRCGEKGKYIHFTPNFLLTNNFHIYGSRGRVFVHEWAHLRWGIFDEYNVDQPFYISRKNTIEATRCSTHITGINVVFKKCPGGSCITSLCRRDSQTGLYEAKCTFLPKKSQTAKESIMFMPSLHSVTEFCTEKTHNTEAPNLQNKMCNGKSTWDVIMNSVDFQNTSPMTEMNPPTHPTFSLLKSKQRVVCLVLDKSGSMSAEDRLFQMNQAAELYLIQVIEKGSLVGMVTFDSVAEIQNHLTRITDDNVYQKITAKLPQVANGGTSICRGLKAGFQAIIHSDQSTSGSEIILLTDGEDNEINSCFEDVKRSGAIIHTIALGPSAAKELETKSNMTGGYRFFANKDITGLTNAFSRISSRSGSITQQAIQLESKALKITGRKRVNGTVPVDSTVGNDTFFVVTWTIQKPEIVLQDPKGKKYKTSDFKEDKLNIRSARLQIPGIAETGTWTYSLLNNHASSQMLTVTVTTRARSPTIPPVIATAHMSQHTAHYPSPMIVYAQVSQGFLPVLGISVIAIIETEDGHQVTLELWDNGAGRDTVKNDGIYSRYFTDYYGNGRYSLKVHAQARNNTARLNLRQPQNKVLYVPGYVENGKIILNPPRPEVKDDLAKAKIEDFSRLTSGGSFTVSGAPPPGNHPSVFPPSKITDLEAKFKEDYIQLSWTAPGNVLDKGKANSYIIRISKSFMDRQEDFDNATLVNTSNLIPKEAGSKENFEFKPEHFRVENGTKFYISVQAINEANLISEVSHIVQAIKFIPLPEDSVHDLGTKISEITLAILGLPMIFSVF
modifications: OTHER INFORMATION: Lu-ECAM-1 precursor from bovine endothelial cells
notes: wild type Lu-ECAM-1 purified with mAb 6D3 from extracts of bovine aortic endothelial cells

Columns and labels:
hCLCA2 = assay: whole cell recording in hCLCA2-transfected HEK293 cells; type: cell-based, human; conditions: for sensitivity of the current to inhibitor: DIDS 300 uM, DTT 2 mM, niflumic acid 100 uM, tamoxifen 10 uM
Description: For human CLCA2, HEK293 cells were transfected using Lipofectamine using manufacturer's instructions. For example, 5 ul lipid and 0.5 ul of CLCA2 were cloned into pcDNA 3.1 per 35 mm well in a 2-3 hour incubation. For expression studies, the 2,832 bp CLCA2 ORF was PCR amplified from human trachea poly-A^+RNA (Clontech) following reverse transcription with Superscript RNase H reverse transcriptase (Life Technologies) and random hexamer priming. PCR was performed with Pwo DNA Polymerase (Boehringer; initial denaturation at 94° C. for 3 min, 35 cycles of 94° for 50 s, 58° C. for 30s, and 72° C. for 2 min with a time increment of 3 s per cycle for each extension step (72° C.), followed by a final extension step of 72° C. for 8 min). Primer sequences were (upstream primer: SEQ ID NO:41, downstream primer: SEQ ID NO:42 with NotI-linkers underlined). PCR products were gel purified, incubated with NotI, and cloned into the expression vector pcDNA3.1 (Invitrogen). Four different PCR products were sequenced to control for potential PCR-induced sequence errors. Cells were simultaneously cotransfected with a reporter vector as described above. Chloride channel conductance activity was recorded after allowing the cells to recover for 24 hours.
(§1) This embodiment illustrates that the full length cDNAs of the present invention encode calcium sensitive chloride channels. The various cDNAs were used for transfection of a cell line. For electrophysiological studies, cells were also cotransfected with a reporter vector (pEGFP, CLONTECH). Cotransfection with a reporter vector allows for easy identification of transfected cells by visualization under a fluorescent microscope. Whole cell recording was then carried out in the transfected cells to determine the presence of calcium sensitive chloride channels.
(§2) Transfected cells were used for electrophysiological recording. Cells were superfused with a bath solution containing 112 mM NMDG-Cl, 30 mM sucrose, 1 mM EGTA, 0.366 mM CaCl2, 2 mM MgCl2, 5 mM N-2-hydroxy-xyethanylpiperazine-N-2-ethanesulfonic acid. Whole cell channel activity was recorded in transfected cells by using borosilicate glass electrodes (tip resistance 4-9 M ohms) filled with the bath solution. Recordings were carried out in the presence or absence of a […] channel inhibitors (DIDS, niflumic acid and DTT). To determine the effect of ionomycin on channel activity, electrodes filled with standard bath solution containing either 5 mM ATP and 1 mM EGTA in the presence of low intracellular calcium. After gigaohm seal formation, cells were clamped at +20 mV. Whole cell currents were recorded at room temperature, sampled at 5-10 kHz and filtered at 1-2 kHz. The I-V relationship was determined using 300 ms voltage steps from a holding potential of +20 mV to potentials from −100 to +100 mV at 10 mV intervals. To normalize measured membrane currents to membrane currents to membrane capacitance, the capacitive current transient recorded in response to a 10 mV hyperpolarizing pulse was integrated and divided by the given voltage to give total membrane capacitance (Cm) for each cell.

hCLCA1 = assay: whole cell recording in hCLCA1-transfected HEK293 cells; type: cell-based, human; conditions: for whole cell current after addition of inhibitor: hCLCA1-transfected cells, activated current 11.06 pA/pF
Excerpt: (§3) In another embodiment of the invention, mCLCA1 cDNA was cut from the pBluescript vector (Stratagene) with SacI and PvuI, blunt ended with Klenow Polymerase and inserted into the tetracycline sensitive mammalian expression vector (pTet-splice, Life Technologies, Inc.) at the EcoRV site. HEK293 cells were cotransfected with mCLCAl cDNA cloned into the pTet-splice along with a vector expressing a tetracycline activator (pTet-tTak) using standard transfection techniques well known to those skilled in the art and as described above (Lipofectamine, Life Technologies, Inc.). Cells were cotransfected with a reporter vector as described above. In another illustration of this embodiment, human CLCA1, HEK293 cells were transfected with either pcDNA 3.1 containing the CLCA1 insert and a reporter vector (enhanced green fluorescent protein, EGFP, CLONTECH) or the reporter vector alone. Transfection can be carried out by standard techniques known to those skilled in the art including CaPO4 precipitation or Lipofectamine (Life Technologies).
as §1
as §2, with “To determine the effect of ionomycin on channel activity, electrodes filled with standard bath solution containing either 5 mM ATP and 1 mM EGTA in the presence of low intracellular calcium. After gigaohm seal formation, cells were clamped at +20 mV.” left out

[1] = tested on: non-transfected or control-transfected cells; assay: whole cell recording in non-transfected or control-transfected cells; type: cell-based; conditions: ionomycin 2 uM
Description: as §1
Transfected cells were used for electrophysiological recording. […] Whole cell channel activity was recorded in transfected cells by using borosilicate glass electrodes (tip resistance 4-9 M ohms) filled with the bath solution. […] Whole cell currents were recorded at room temperature, sampled at 5-10 kHz and filtered at 1-2 kHz. The I-V relationship was determined using 300 ms voltage steps from a holding potential of +20 mV to potentials from −100 to +100 mV at 10 mV intervals. To normalize measured membrane currents to membrane currents to membrane capacitance, the capacitive current transient recorded in response to a 10 mV hyperpolarizing pulse was integrated and divided by the given voltage to give total membrane capacitance (Cm) for each cell.

mCLCA1 = assay: whole cell recording in mCLCA1-transfected HEK293 cells; type: cell-based, murine; conditions: for effect on Ca2+ sensitive chloride current under whole cell conditions: mCLCA1-transfected HEK293 cells
Excerpt: as §3, §1, §2

B1GF10 melanoma cells = conditions: mouse, in vivo; cited from earlier work
[2] = tested on: lung-metastatic B16-Fl0 melanoma cells; assay: tumor cell adhesion assay on Lu-ECAM-1 coated wells; type: cell-based; conditions: wells coated with 100 μg/ml protein; 10 minutes at 37° C.
Description: Recombinant (r) Lu-ECAM-1 and wild type (wt) Lu-ECAM-1 were compared in their adhesion ability to lung-metastatic B16-Fl0 melanoma cells. Using anti-Lu-ECAM-1 mAb 6D3, wtLu-ECAM-1 was purified from extracts of bovine aortic endothelial cells, and rLu-ECAM-1 was purified from extracts of transfected HEK293 cells. The tumor cell adhesion assay was performed as described previously (Zhu et al., 1992, supra). Briefly, 100 μg/ml in phosphate buffered saline of either wtLu-ECAM-1 or rLu-ECAM-1 was used to coat wells of 96 plates overnight at 4° C. Wells were then washed with tissue culture medium, and each well is seeded with a suspension of tissue culture medium and 2×10^4 tumor cells which had been radio-labelled. After being spun onto the coated wells at 15 g for 1 minute, and incubated for 10 minutes at 37° C., nonadherent tumor cells were spun off at 150 g for 5 minutes. Adherent tumor cells were then dissolved in 1% SDS and counted in a liquid scintillation counter. Tumor cell attachment is recorded as the percent cells bound of the total cells seeded. Inhibition of tumor cell adhesion is determined by first incubating the Lu-ECAM-1 coated wells with mAb 6D3 (10 μg/ml) for 1 hour at room temperature before the tumor cells are added.

Molecule	sensitivity of the current to inhibitor (hCLCA2)	whole cell current after addition of inhibitor (hCLCA1) [pA/pF]	effect on Ca2+ sensitive chloride current under whole cell conditions (mCLCA1)	also measured
CC/C(=C(\c1ccccc1)c1ccc(OCCN(C)C)cc1)c1ccccc1 [tamoxifen]	sensitive	–	–	–
C[C@H](CCC(=O)O)C[C@H](C)C[C@H](C)C(=O)/C=C(\O)[C@H](C)C[C@H](C)C/C=C/[C@@H](C)[C@@H](O)[C@@H](C)[C@@H](O)C[C@@H]1CC[C@@](C)([C@H]2CC[C@@](C)([C@@H](C)O)O2)O1 [ionomycin]	–	–	–	maximally activated current at +100 mV after external perfusion of ionomycin (hCLCA1; ionomycin 2 uM, increase from 0.65 pA/pF): 11.06 pA/pF; activation of the current by ionomycin (hCLCA2; ionomycin 4 uM in bath, pipet about 25 nM Ca2+, 2 mM Ca2+ in the bath): activated the current; effect of ionomycin on current in non-transfected or control-transfected cells [1]: No significant effect; whole cell current at +100 mV with ionomycin (mCLCA1; ionomycin 2 uM, low intracellular free Ca2+, basal 2.05±1.09 pA/pF): 10.23±3.46 pA/pF
O=C(O)c1cccnc1Nc1cccc(C(F)(F)F)c1 [niflumic acid]	sensitive	2.07	inhibited	–
O[C@@H](CS)[C@@H](O)CS [DTT]	sensitive	1.67	inhibited	–
O=S(=O)(O)c1cc(N=C=S)ccc1C=Cc1ccc(N=C=S)cc1S(=O)(=O)O [DIDS]	sensitive	1.63	inhibited	whole cell current after perfusion of inhibitor (mCLCA1; 300 uM DIDS, 2 mM Ca2+, basal 12.01±6.31 pA/pF): 1.84 ±0.96 pA/pF
B1	–	–	–	prevention or inhibition of metastatic colonization of the lungs by B1GF10 cells (B1GF10 melanoma cells): inhibition of metastatic colonization; adhesion of lung-metastatic tumor cells supported (percent cells bound of the total cells seeded) [2]: 43%
